Values joined by “and” are separate entries in the source; they are usually repeats but may differ in a detail not shown here. Identical values can stand only once. Strand notation (5' to 3'): a small letter for the sugar, then the base; units joined by * are phosphorothioate-linked, units joined directly phosphodiester-linked; [ ] holds rarer units or linkages, { } end groups; capitals alone tell only the bases. k = constrained ethyl (cEt); [5mC] = 5-methylcytosine; d = 2'-deoxy (DNA)
Assays:
human SMAD7 mRNA [1] = assay: Antisense inhibition of human SMAD7 mRNA expression in Hep3B cells by 3-10-3 cEt gapmers, 10,000 nM, electroporation (Example 2); type: cell-based; details: approximately 24 hours, primer probe set RTS5062, relative to untreated control cells; for % inhibition of SMAD7 mRNA expression: Hep3B cells, electroporation with 10,000 nM antisense oligonucleotide; for % Inhibition: SMAD7 mRNA, Hep3B cells, 10,000 nM antisense oligonucleotide, electroporation
Procedure, shortened: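 qRT-PCR (RTS5062) of SMAD7 mRNA, normalised to RIBOGREEN total RNA, gave percent inhibition relative to untreated controls. Hep3B cells at 20,000 per well received 10,000 nM oligonucleotide by electroporation, with ~24 h treatment.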

human SMAD7 mRNA [2] = assay: Dose-dependent inhibition of human SMAD7 mRNA expression in Hep3B cells, comparison with ION 28453 (Example 4); type: cell-based; details: electroporation, approximately 16 hours
Protocol: Cells were plated at a density of 20,000 cells per well and transfected using electroporation with 0.25 μM, 0.74 μM, 2.22 μM, 6.67 μM, or 20.00 μM concentrations of antisense oligonucleotide, as specified in the Tables below. After a treatment period of approximately 16 hours, RNA was isolated from the cells and SMAD7 mRNA levels were measured by quantitative real-time PCR. Primer probe set RTS5062 was used to measure human SMAD7 mRNA levels. SMAD7 mRNA levels were adjusted according to total RNA content, as measured by RIBOGREEN®. Results are presented as percent inhibition of SMAD7 mRNa expression, relative to untreated control cells.
The half maximal inhibitory concentration (IC50) of each oligonucleotide is also presented. […] Several newly designed antisense oligonucleotides had greater potency than the previously disclosed lead compound, ION 28453.

human SMAD7 mRNA [3] = assay: Dose-dependent inhibition of human SMAD7 mRNA expression in Hep3B cells (Example 3, Study 1 and 2); type: cell-based; details: electroporation; for % inhibition of SMAD7 mRNA expression: approximately 16 hours; for IC50: Study 2 (740-20000 nM)
Procedure, shortened: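 Hep3B cells, 20,000 per well, electroporated with antisense oligonucleotide at 0.31, 1.25, 5.00 or 20.00 μM (first series) or 0.74, 2.22, 6.67 or 20.00 μM (second series). After ~16 h, SMAD7 mRNA measured by RT-qPCR (RTS5062), normalised to RIBOGREEN total RNA. Percent inhibition vs untreated cells; IC50 derived.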

mouse Smad7 mRNA [4] = assay: Murine Smad7 mRNA expression after oral administration in BALB/c mice (Example 11); type: in vivo; details: 500 mg/kg/day oral for 3 weeks, 24 hours after last dose
Protocol: The objective of this study was to evaluate the efficacy of Ionis SMAD7 antisense oligonucleotides in BALB/c mice following daily oral administration. The Ionis oligonucleotides are cross-reactive with mouse Smad7 mRNA.
Groups of BALB/c mice were orally administered 500 mg/kg/day for 3 weeks of human Smad7 oligonucleotides, ION 790615, ION 798781, or ION 830025, or mouse Smad7 oligonucleotide, ION 772797 (a 3-10-3 cEt gapmer with phosphorothioate backbone and sequence […]; designated herein as SEQ ID NO: 2743). One group of mice was orally administered PBS daily for 3 weeks. Each group contained 4 mice.
To evaluate the efficacy of the oligonucleotides, murine Smad7 mRNA expression in the liver, kidneys, duodenum, ileum, and colon was measured using primer probe set RTS1114.

mouse Smad7 mRNA [5] = assay: Pharmacology: mouse Smad7 mRNA expression in liver, kidney, duodenum, ileum and colon after subcutaneous administration in CD-1 mice (Example 6); type: in vivo; details: 50 mg/kg subcutaneous twice weekly for 7 weeks, normalized to GAPDH
Protocol: (§1) Groups of 8-9 week old male CD-1 mice were injected subcutaneously twice a week for 7 weeks with 50 mg/kg of Ionis oligonucleotides (100 mg/kg/week dose). Each group contained 4 mice. One group of male CD-1 mice was injected subcutaneously twice a week for 7 weeks with PBS. Plasma was collected for analysis on day 28.
The pharmacological activity of the Ionis oligonucleotides in mice was assessed by measuring mouse Smad7 mRNA expression in liver, kidney, duodenum, ileum, and colon at necropsy.
Tissue samples from all mice were analyzed for Smad7 mRNA expression using the primer probe set HTS7555 (forward sequence […], designated SEQ ID NO: 2737; reverse sequence […], designated SEQ ID NO: 2738; probe sequence […], designated SEQ ID NO: 2739), which was normalized to mRNA levels of the housekeeping gene, GAPDH. One-way ANOVA with Dunnet's comparison test was used for statistical analysis.

[6] = Organ weights after subcutaneous administration in CD-1 mice (Example 6); type: in vivo; details: end of study, 50 mg/kg subcutaneously twice a week for 7 weeks
Protocol: as §1
Ionis SMAD7 oligonucleotides that caused any changes in organ weights outside the expected range for antisense oligonucleotides were excluded from further studies.

[7] = Plasma chemistry markers after subcutaneous administration in CD-1 mice (Example 6); type: in vivo; details: CD-1 mice plasma at day 46; 50 mg/kg subcutaneously twice a week for 7 weeks
Protocol: CD-1® mice (Charles River, Mass.) are a multipurpose mice model, frequently utilized for safety and efficacy testing. The mice were treated with Ionis human SMAD7 antisense oligonucleotides selected from studies described above and evaluated.
Groups of 8-9 week old male CD-1 mice were injected subcutaneously twice a week for 7 weeks with 50 mg/kg of Ionis oligonucleotides (100 mg/kg/week dose). Each group contained 4 mice. One group of male CD-1 mice was injected subcutaneously twice a week for 7 weeks with PBS. […]

[8] = Hematology assays after subcutaneous administration in CD-1 mice (Example 6); type: in vivo; set-up: RBC / Eosinophils / Monocytes: unit not given here; details: 50 mg/kg subcutaneous twice weekly for 7 weeks
Protocol: as §1
Blood obtained from all mouse groups was measured by an ADVIA2120i hematology analyzer (Siemens, USA) for measurements of the various blood cells, as well as other hematology markers.

[9] = 740 nM, Study 2, relative to untreated control cells

Question: With “772568 (antisense kA*kG*k[5mC]*d[5mC]*dT*d[5mC]*dT*dT*dG*dA*d[5mC]*dT*dT*k[5mC]*k[5mC]*kG) [compound 772568]” as the substance, how does the “% inhibition of SMAD7 mRNA expression” value (human SMAD7 mRNA [1]) read?
Answer: The value was 82%.

Question: What about the “% Inhibition” value (human SMAD7 mRNA [1]) of the same substance?
Answer: Its value is 45%.

Question: What about the “% inhibition of SMAD7 mRNA expression” value (human SMAD7 mRNA [2]; 0.74 μM) of the same substance?
Answer: Its value is 0%.

Question: What about the “% inhibition of SMAD7 mRNA expression” value (human SMAD7 mRNA [2]; 2.22 μM) of the same substance?
Answer: The value was 22% and 25%.

Question: What about the “% inhibition of SMAD7 mRNA expression” value (human SMAD7 mRNA [2]; 6.67 μM) of the same substance?
Answer: Its value is 36% and 47%.

Question: And the “% inhibition of SMAD7 mRNA expression” value (human SMAD7 mRNA [2]; 20.00 μM)?
Answer: Its value is 61%.

Question: And the IC50 (human SMAD7 mRNA [2]; SMAD7 mRNA)?
Answer: The IC50 was 13000 nM and 9000 nM.

Question: What about the “% inhibition of SMAD7 mRNA expression” value (human SMAD7 mRNA [3]; [9]) of the same substance?
Answer: Its value is 41%.

Question: And the “% inhibition of SMAD7 mRNA expression” value (human SMAD7 mRNA [3]; 2220 nM, Study 2)?
Answer: Its value is 62%.

Question: And the “% inhibition of SMAD7 mRNA expression” value (human SMAD7 mRNA [3]; 6670.0 nM, Study 2)?
Answer: The value was 58%.

Question: And the “% inhibition of SMAD7 mRNA expression” value (human SMAD7 mRNA [3]; 20000.0 nM, Study 2)?
Answer: The value was 79%.

Question: What about the IC50 (human SMAD7 mRNA [3]) of the same substance?
Answer: The IC50 was 1000 nM.

Question: With “772797 (AATGAACTGTATCTCC; sugars from the 5' end k3 d10 k3, all phosphorothioate, methylation of C not given here) [compound 772797]” as the substance, how does the “Mouse Smad7 mRNA expression (% inhibition), Colon” value (mouse Smad7 mRNA [4]; colon) read?
Answer: Its value is 1 % inhibition.

Question: What about the “Mouse Smad7 mRNA expression (% inhibition), Duodenum” value (mouse Smad7 mRNA [4]; duodenum) of the same substance?
Answer: The value was 36 % inhibition.

Question: What about the “Mouse Smad7 mRNA expression (% inhibition), Ileum” value (mouse Smad7 mRNA [4]; ileum) of the same substance?
Answer: Its value is 8 % inhibition.

Question: And the “Mouse Smad7 mRNA expression (% inhibition), Kidney” value (mouse Smad7 mRNA [4]; kidney)?
Answer: Its value is 0 % inhibition.

Question: What about the “Mouse Smad7 mRNA expression (% inhibition), Liver” value (mouse Smad7 mRNA [4]; liver) of the same substance?
Answer: The value was 7 % inhibition.

Question: What does the source list for “799144 (antisense kT*kT*kG*dG*dG*dT*dT*dA*dT*dG*dA*d[5mC]*dG*kG*kA*k[5mC]) [compound 799144]”?
Answer: % inhibition of SMAD7 mRNA expression (human SMAD7 mRNA [1]): 72%; % Inhibition (human SMAD7 mRNA [1]): 72%; % inhibition of Smad7 mRNA expression (compared to control), Kidney (mouse Smad7 mRNA [5]; kidney): 3%; % inhibition of Smad7 mRNA expression (compared to control), Liver (mouse Smad7 mRNA [5]; liver): 0%; Organ weights, Kidneys [6]: 0.6 g; Organ weights, Liver [6]: 2.3 g; Organ weights, Spleen [6]: 0.1 g; ALT [7]: 253 IU/L; AST [7]: 170 IU/L; Albumin [7]: 2.7 g/dL; BUN [7]: 21 mg/dL; % inhibition of SMAD7 mRNA expression (human SMAD7 mRNA [3]; [9]): 32% and 40%; % inhibition of SMAD7 mRNA expression (human SMAD7 mRNA [3]; 2220 nM, Study 2): 50% and 57%; % inhibition of SMAD7 mRNA expression (human SMAD7 mRNA [3]; 6670.0 nM, Study 2): 67% and 60%; % inhibition of SMAD7 mRNA expression (human SMAD7 mRNA [3]; 20000.0 nM, Study 2): 83% and 87%; IC50 (human SMAD7 mRNA [3]): 2000 nM and 1000 nM; Eosinophils [8]: 2.9; Hematocrit [8]: 43.1%; Hemoglobin [8]: 14.3 g/dL; Lymphocytes [8]: 80.7%; MCH [8]: 15.2 pg; MCHC [8]: 33.2 g/dL; MCV [8]: 45.8 fL; Monocytes [8]: 4.9; Neutrophils [8]: 11.4%; RBC [8]: 9.5; Reticulocytes [8]: 3.3%; WBC [8]: 6.2 10^3/μL; platelets [8]: 614.0 10^3/μL; Basophils ([8]; n.d. = below detection levels): 0.1 10^3/μL

— patent US10517889B2, “Modulators of SMAD7 expression” (Ionis Pharmaceuticals, Inc., priority 2017, dated 2019)
